Key:
[1] = cited from earlier work
[2] = In vitro permeation of metronidazole through epidermal membrane in Franz type diffusion cells after amino acid pre-treatment; format: in vitro ADME, Human; conditions: maximal enhancement of the drug's permeation by amino acid pre-treatment
Protocol: (§1) Acyclovir (ACV), metronidazole and diclofenac diethylamine (DDEA) were analysed using HPLC, using of a Waters Alliance Separations Module and Waters detector. The temperature of the column and samples were maintained at 45±2° C. and 5.0±2° C., respectively. A Kinetix™ C-18 (Phenomenex, USA) column (150 mm×4.6 mm 5 μm particle size) with a guard column (Phenomenex USA, C-18 4.0×3.0 mm) was employed as the stationary phase. The mobile phase was three part; mobile phase A, water; mobile phase B, methanol; and mobile phase C, 10 mM ammonium phosphate buffer pH 2.5. The mobile phase was run using a gradient flow (Table 2) with a flow rate of 0.8 mL/min. Samples were run for 12 minutes with an injection volume of 10 μL. Acyclovir, metronidazole and DDEA were processed at a wavelength of 276 nm, with approximate retention times of 4.7, 6.5, and 8.7 min, respectively. Calibration curves were constructed from a series of standards prepared by serial dilution in conjunction with separately prepared quality controls. […] Data were recorded and analysed using Empower Pro^3 Software. […]
(§2) Three experiments were performed, one for each API (Acyclovir, metronidazole and DDEA). […] The integrity of the epidermal membrane was assessed using electrical resistance to ensure the epidermal membrane was intact. […] Samples were analysed using HPLC and the level of each API that had permeated was quantified.

[3] = In vitro permeation of diclofenac diethylamine (DDEA) through epidermal membrane in Franz type diffusion cells after amino acid pre-treatment; format: in vitro ADME, Human; conditions: maximal enhancement of the drug's permeation by amino acid pre-treatment
Protocol: as §1, §2

[4] = In vitro permeation of Acyclovir through epidermal membrane in Franz type diffusion cells after amino acid pre-treatment; format: in vitro ADME, Human; conditions: maximal enhancement of the drug's permeation by amino acid pre-treatment
Protocol: as §1, §2

Cc1ncc([N+](=O)[O-])n1CCO [Metronidazole]
Log P [1]: −0.02
ER (drug absorption enhancement factor) [2]: 15

O=C(O)Cc1ccccc1Nc1c(Cl)cccc1Cl [Diclofenac diethylamine]
Log P [1]: 0.85
ER (drug absorption enhancement factor) [3]: 19

Nc1nc2c(ncn2COCCO)c(=O)[nH]1 [ACV, Acyclovir]
ER (drug absorption enhancement factor) [4]: 12
